Reference: ChEMBL document CHEMBL3580643, “Structure-Activity Relationships of Neplanocin A Analogues as S-Adenosylhomocysteine Hydrolase Inhibitors and Their Antiviral and Antitumor Activities” (J Med Chem, 2015)

What was measured:
[1] = Cytotoxicity against human SNU638 cells assessed as inhibition of cell proliferation after 72 hrs by sulforhodamine B assay; assay type: functional, cell-based; settings: SNU-638, 72 h
A549 = assay: Cytotoxicity against human A549 cells assessed as inhibition of cell proliferation after 72 hrs by sulforhodamine B assay; assay type: functional, cell-based; settings: A549, 72 h
PC-3 = assay: Cytotoxicity against human PC3 cells assessed as inhibition of cell proliferation after 72 hrs by sulforhodamine B assay; assay type: functional, cell-based; settings: PC-3, 72 h
[2] = Cytotoxicity against human SKHEP1 cells assessed as inhibition of cell proliferation after 72 hrs by sulforhodamine B assay; assay type: functional, cell-based; settings: SK-HEP1, 72 h
HCT-116 = assay: Cytotoxicity against human HCT116 cells assessed as inhibition of cell proliferation after 72 hrs by sulforhodamine B assay; assay type: functional, cell-based; settings: HCT-116, 72 h
MDA-MB-231 = assay: Cytotoxicity against human MDA-MB-231 cells assessed as inhibition of cell proliferation after 72 hrs by sulforhodamine B assay; assay type: functional, cell-based; settings: MDA-MB-231, 72 h
Adenosylhomocysteinase = Adenosylhomocysteinase (Homo sapiens, UniProt P23526); assay: Inhibition of recombinant human placental AdoHcy hydrolase expressed in Escherichia coli BL21 using AdoHcy as substrate preincubated for 10 mins followed by substrate addition measured after 20 mins by DTNB coupled assay
Picornaviridae = assay: Antiviral activity against picornavirus infected in CB1 cells assessed as inhibition of viral replication after 3 days by MTT assay; assay type: functional, organism-based; settings: CB1, 72 h
[3] = Cytotoxicity against CB1 cells (unknown origin) assessed as cell viability up to 100 uM after 3 days by MTT assay; assay type: cell-based; settings: cb1, 72 h
HeLa = assay: Cytotoxicity against human HeLa cells assessed as cell viability up to 40 uM after 3 days by MTT assay; assay type: cell-based; settings: 72 h
[4] = test system: Vesicular stomatitis virus; assay: Antiviral activity against vesicular stomatitis virus infected in human HeLa cells assessed as inhibition of viral replication after 3 days by MTT assay; assay type: functional, organism-based; settings: 72 h

Sequence of Adenosylhomocysteinase (P23526 whole entry): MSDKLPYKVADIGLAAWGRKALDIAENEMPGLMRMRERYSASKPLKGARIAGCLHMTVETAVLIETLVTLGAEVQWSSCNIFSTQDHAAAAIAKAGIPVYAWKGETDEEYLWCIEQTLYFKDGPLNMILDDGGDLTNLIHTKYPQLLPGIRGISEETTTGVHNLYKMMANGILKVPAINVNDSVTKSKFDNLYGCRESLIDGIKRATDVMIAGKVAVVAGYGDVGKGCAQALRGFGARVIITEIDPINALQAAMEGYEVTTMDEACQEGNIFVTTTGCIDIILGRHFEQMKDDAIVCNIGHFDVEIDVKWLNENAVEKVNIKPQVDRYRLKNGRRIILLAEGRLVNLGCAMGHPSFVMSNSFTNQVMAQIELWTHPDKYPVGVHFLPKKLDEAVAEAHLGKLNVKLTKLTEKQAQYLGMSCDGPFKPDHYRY

Row | SMILES | IC50 [1] [µM] | IC50 (A549) [µM] | IC50 (PC-3) [µM] | IC50 [2] [µM] | IC50 (HCT-116) [µM] | IC50 (MDA-MB-231) [µM] | IC50 (Adenosylhomocysteinase) [µM] | EC50 (Picornaviridae) [µM] | Activity [3] | Activity (HeLa) | EC50 [4] [µM]
1 | Nc1nccc2c1ncn2[C@@H]1C=C(CO)[C@@H](O)[C@H]1O | 0.91 | 1.4 | 9.39 | 0.72 | 0.26 | 0.3 |  |  |  |  | 
2 | Nc1ncnc2c1ncn2[C@@H]1C=C(CCO)[C@@H](O)[C@H]1O | 2.31 | 8.95 | > 100 | 6.12 | 1.72 | 2.64 |  |  |  |  | 
3 | CNc1ncnc2c1ccn2[C@@H]1C=C(CO)[C@@H](O)[C@H]1O | > 100 | > 100 | > 100 | 99.2 | > 100 | 49.5 | > 100 |  |  |  | 
4 | OCC1=C[C@@H](n2ccc3c(O)ncnc32)[C@H](O)[C@@H]1O | > 100 | > 100 | > 100 | > 100 | > 100 | > 100 | > 100 |  |  |  | 
5 | Nc1ncnc2c1ccn2[C@@H]1C(F)=C(CO)[C@@H](O)[C@H]1O | 0.96 | 16.8 | 1.3 | 1.39 | 0.94 | 0.94 | > 100 | 2.34 | Non-toxic |  | 
6 | CNc1ncnc2c1ccn2[C@@H]1C(F)=C(CO)[C@@H](O)[C@H]1O | > 100 | > 100 | > 100 | > 100 | > 100 | > 100 | > 100 |  |  |  | 
7 | OCC1=C(F)[C@@H](n2ccc3c(O)ncnc32)[C@H](O)[C@@H]1O | > 100 | > 100 | > 100 | > 100 | > 100 | > 100 | > 100 |  |  |  | 
8 | Nc1ncnc2c1ccn2[C@@H]1C=C(CCO)[C@@H](O)[C@H]1O | 30.2 | 34 | > 100 | 42.1 | 32 | 26.3 | > 100 |  |  |  | 
9 | Nc1ncnc2c1ncn2[C@@H]1C(F)=C(CCO)[C@@H](O)[C@H]1O | 3.73 | 11.7 | > 100 | 8.07 | 2.9 | 6.95 | 0.91 |  |  |  | 
10 | Nc1nccc2c1ncn2[C@@H]1C=C(CCO)[C@@H](O)[C@H]1O | 28.2 | 76.5 | > 100 | 28.9 | 17.9 | 8.01 | 3.76 |  |  |  | 
11 | Nc1ncnc2c1ccn2C1C=C(CO)[C@@H](O)[C@H]1O (single isomer, unassigned) [DEAZANEPLANOCIN A] | 1.2 | 1.84 | 1.62 | 1.17 | 10.4 | 0.79 | > 100 |  |  |  | 
12 | Nc1ccn([C@@H]2O[C@H](CO)[C@@H](O)[C@@H]2O)c(=O)n1 [CYTARABINE] | 3.98 | 1.2 | 50.5 | 2.12 | 2.42 | 1.37 |  |  |  |  | 
13 | COc1cc([C@@H]2c3cc4c(cc3[C@@H](O[C@@H]3O[C@@H]5CO[C@@H](C)O[C@H]5[C@H](O)[C@H]3O)[C@H]3COC(=O)[C@H]23)OCO4)cc(OC)c1O [ETOPOSIDE] | 0.3 | 0.4 |  | 2.8 |  | 7.7 |  |  |  |  | 
14 | Nc1ncnc2c1ncn2[C@@H]1C(F)=C(CO)[C@@H](O)[C@H]1O [FLUORO-NEPLANOCIN A] | 2.2 | 1.2 | 1.4 | 0.8 | 2.8 | 1.4 | 0.24 |  |  | Non-toxic | 0.43
15 | Nc1ncnc2c1ncn2[C@@H]1C=C(CO)[C@@H](O)[C@H]1O [NEOPLANOCIN A] | 0.7 | 1.22 | 3.7 | 4.5 | 0.9 | 0.4 | 0.47 |  |  |  | 
